# Assay results taken from PubChem BioAssay (NCI).
#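 Interpolation was linear, between the two tested concentrations surrounding the appropriate level; five concentrations were tested over 48 hours in 96-well plates. The concentration for full growth arrest is given as TGI.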
# Legend:
# Test in all cases: NCI tumour cell line growth inhibition, 48 h
# CAKI-1 renal = test system: CAKI-1 renal
# COLO 205 colon = test system: COLO 205 colon
# DMS 273 small cell lung = test system: DMS 273 small cell lung
# HCC-2998 colon = test system: HCC-2998 colon
# HCT-116 colon = test system: HCT-116 colon
# HCT-15 colon = test system: HCT-15 colon
# HL-60(TB) leukemia = test system: HL-60(TB) leukemia
# HOP-18 NSCLC = test system: HOP-18 NSCLC
# HOP-62 NSCLC = test system: HOP-62 NSCLC
# HOP-92 NSCLC = test system: HOP-92 NSCLC
# HT29 colon = test system: HT29 colon
# KM12 colon = test system: KM12 colon
# KM20L2 colon = test system: KM20L2 colon
# LOX IMVI melanoma = test system: LOX IMVI melanoma
# LXFL 529 NSCLC = test system: LXFL 529 NSCLC
# M14 melanoma = test system: M14 melanoma
# M19-MEL melanoma = test system: M19-MEL melanoma
# MALME-3M melanoma = test system: MALME-3M melanoma
# NCI-H226 lung = test system: NCI-H226 lung
# NCI-H460 lung = test system: NCI-H460 lung
# OVCAR-3 ovarian = test system: OVCAR-3 ovarian
# OVCAR-4 ovarian = test system: OVCAR-4 ovarian
# OVCAR-5 ovarian = test system: OVCAR-5 ovarian
# OVCAR-8 ovarian = test system: OVCAR-8 ovarian
# SF-295 CNS = test system: SF-295 CNS
# SK-MEL-2 melanoma = test system: SK-MEL-2 melanoma
# SN12C renal = test system: SN12C renal
# SNB-19 CNS = test system: SNB-19 CNS
# SR leukemia = test system: SR leukemia
# SW-620 colon = test system: SW-620 colon
# UACC-257 melanoma = test system: UACC-257 melanoma
# UO-31 renal = test system: UO-31 renal
# 786-0 renal = test system: 786-0 renal
# A498 renal = test system: A498 renal
# A549 NSCLC = test system: A549 NSCLC
# ACHN renal = test system: ACHN renal
# CCRF-CEM leukemia = test system: CCRF-CEM leukemia
# DLD-1 colon = test system: DLD-1 colon
# DMS 114 small cell lung = test system: DMS 114 small cell lung
# EKVX NSCLC = test system: EKVX NSCLC
# IGROV1 ovarian = test system: IGROV1 ovarian
# K-562 leukemia = test system: K-562 leukemia
# MOLT-4 leukemia = test system: MOLT-4 leukemia
# NCI-H23 lung = test system: NCI-H23 lung
# NCI-H522 lung = test system: NCI-H522 lung
# RPMI-8226 leukemia = test system: RPMI-8226 leukemia
# SF-268 CNS = test system: SF-268 CNS
# SF-539 CNS = test system: SF-539 CNS
# SK-MEL-28 melanoma = test system: SK-MEL-28 melanoma
# SK-MEL-5 melanoma = test system: SK-MEL-5 melanoma
# SK-OV-3 ovarian = test system: SK-OV-3 ovarian
# SNB-75 CNS = test system: SNB-75 CNS
# TK-10 renal = test system: TK-10 renal
# U251 CNS = test system: U251 CNS
# UACC-62 melanoma = test system: UACC-62 melanoma
# XF 498 CNS = test system: XF 498 CNS
# RXF 393 renal = test system: RXF 393 renal
# SNB-78 CNS = test system: SNB-78 CNS
smiles,measurement,setting,value
O=C(Nc1cccc(C(F)(F)F)c1)c1cc(-c2ccccc2)nc(=S)[nH]1,TGI,CAKI-1 renal,> 100 µM
same,TGI,COLO 205 colon,> 100 µM
same,TGI,DMS 273 small cell lung,> 100 µM
same,TGI,HCC-2998 colon,> 100 µM
same,TGI,HCT-116 colon,> 100 µM
same,TGI,HCT-15 colon,> 100 µM
same,TGI,HL-60(TB) leukemia,> 100 µM
same,TGI,HOP-18 NSCLC,> 100 µM
same,TGI,HOP-62 NSCLC,> 100 µM
same,TGI,HOP-92 NSCLC,> 100 µM
same,TGI,HT29 colon,> 100 µM
same,TGI,KM12 colon,> 100 µM
same,TGI,KM20L2 colon,> 100 µM
same,TGI,LOX IMVI melanoma,> 100 µM
same,TGI,LXFL 529 NSCLC,> 100 µM
same,TGI,M14 melanoma,> 100 µM
same,TGI,M19-MEL melanoma,> 100 µM
same,TGI,MALME-3M melanoma,> 100 µM
same,TGI,NCI-H226 lung,> 100 µM
same,TGI,NCI-H460 lung,> 100 µM
same,TGI,OVCAR-3 ovarian,> 100 µM
same,TGI,OVCAR-4 ovarian,> 100 µM
same,TGI,OVCAR-5 ovarian,> 100 µM
same,TGI,OVCAR-8 ovarian,> 100 µM
same,TGI,SF-295 CNS,> 100 µM
same,TGI,SK-MEL-2 melanoma,> 100 µM
same,TGI,SN12C renal,> 100 µM
same,TGI,SNB-19 CNS,> 100 µM
same,TGI,SR leukemia,> 100 µM
same,TGI,SW-620 colon,> 100 µM
same,TGI,UACC-257 melanoma,> 100 µM
same,TGI,UO-31 renal,> 100 µM
CCOC(=O)C1(C(=O)OCC)CC=C(C)CC12C(=O)Nc1ccccc12 (stereo not drawn),TGI,786-0 renal,> 100 µM
same,TGI,A498 renal,> 100 µM
same,TGI,A549 NSCLC,> 100 µM
same,TGI,ACHN renal,> 100 µM
same,TGI,CAKI-1 renal,> 100 µM
same,TGI,CCRF-CEM leukemia,> 100 µM
same,TGI,COLO 205 colon,> 100 µM
same,TGI,DLD-1 colon,> 100 µM
same,TGI,DMS 114 small cell lung,> 100 µM
same,TGI,DMS 273 small cell lung,> 100 µM
same,TGI,EKVX NSCLC,> 100 µM
same,TGI,HCC-2998 colon,> 100 µM
same,TGI,HCT-116 colon,> 100 µM
same,TGI,HCT-15 colon,> 100 µM
same,TGI,HL-60(TB) leukemia,> 100 µM
same,TGI,HOP-18 NSCLC,> 100 µM
same,TGI,HOP-62 NSCLC,> 100 µM
same,TGI,HOP-92 NSCLC,> 100 µM
same,TGI,HT29 colon,> 100 µM
same,TGI,IGROV1 ovarian,> 100 µM
same,TGI,K-562 leukemia,> 100 µM
same,TGI,KM12 colon,> 100 µM
same,TGI,KM20L2 colon,> 100 µM
same,TGI,LOX IMVI melanoma,> 100 µM
same,TGI,LXFL 529 NSCLC,> 100 µM
same,TGI,M14 melanoma,> 100 µM
same,TGI,M19-MEL melanoma,> 100 µM
same,TGI,MALME-3M melanoma,> 100 µM
same,TGI,MOLT-4 leukemia,> 100 µM
same,TGI,NCI-H226 lung,> 100 µM
same,TGI,NCI-H23 lung,> 100 µM
same,TGI,NCI-H460 lung,> 100 µM
same,TGI,NCI-H522 lung,> 100 µM
same,TGI,OVCAR-3 ovarian,> 100 µM
same,TGI,OVCAR-4 ovarian,> 100 µM
same,TGI,OVCAR-5 ovarian,> 100 µM
same,TGI,OVCAR-8 ovarian,> 100 µM
same,TGI,RPMI-8226 leukemia,> 100 µM
same,TGI,SF-268 CNS,> 100 µM
same,TGI,SF-295 CNS,> 100 µM
same,TGI,SF-539 CNS,> 100 µM
same,TGI,SK-MEL-2 melanoma,> 100 µM
same,TGI,SK-MEL-28 melanoma,> 100 µM
same,TGI,SK-MEL-5 melanoma,> 100 µM
same,TGI,SK-OV-3 ovarian,> 100 µM
same,TGI,SN12C renal,> 100 µM
same,TGI,SNB-19 CNS,> 100 µM
same,TGI,SNB-75 CNS,> 100 µM
same,TGI,SW-620 colon,> 100 µM
same,TGI,TK-10 renal,> 100 µM
same,TGI,U251 CNS,> 100 µM
same,TGI,UACC-62 melanoma,> 100 µM
same,TGI,XF 498 CNS,> 100 µM
CC(C)(C)C(=O)OCC(COC(=O)C(C)(C)C)[N+](=O)[O-],TGI,786-0 renal,> 100 µM
same,TGI,A549 NSCLC,> 100 µM
same,TGI,ACHN renal,> 100 µM
same,TGI,CAKI-1 renal,> 100 µM
same,TGI,CCRF-CEM leukemia,> 100 µM
same,TGI,COLO 205 colon,> 100 µM
same,TGI,DLD-1 colon,> 100 µM
same,TGI,DMS 114 small cell lung,> 100 µM
same,TGI,DMS 273 small cell lung,> 100 µM
same,TGI,EKVX NSCLC,> 100 µM
same,TGI,HCC-2998 colon,> 100 µM
same,TGI,HCT-116 colon,> 100 µM
same,TGI,HCT-15 colon,> 100 µM
same,TGI,HL-60(TB) leukemia,79.8 µM
same,TGI,HT29 colon,> 100 µM
same,TGI,IGROV1 ovarian,> 100 µM
same,TGI,K-562 leukemia,> 100 µM
same,TGI,KM12 colon,> 100 µM
same,TGI,LOX IMVI melanoma,> 100 µM
same,TGI,LXFL 529 NSCLC,> 100 µM
same,TGI,M14 melanoma,> 100 µM
same,TGI,M19-MEL melanoma,> 100 µM
same,TGI,MALME-3M melanoma,> 100 µM
same,TGI,MOLT-4 leukemia,> 100 µM
same,TGI,NCI-H226 lung,> 100 µM
same,TGI,NCI-H23 lung,> 100 µM
same,TGI,NCI-H460 lung,> 100 µM
same,TGI,NCI-H522 lung,47.3 µM
same,TGI,OVCAR-3 ovarian,> 100 µM
same,TGI,OVCAR-4 ovarian,> 100 µM
same,TGI,OVCAR-5 ovarian,> 100 µM
same,TGI,OVCAR-8 ovarian,> 100 µM
same,TGI,RPMI-8226 leukemia,> 100 µM
same,TGI,RXF 393 renal,> 100 µM
same,TGI,SF-268 CNS,> 100 µM
same,TGI,SF-295 CNS,> 100 µM
same,TGI,SF-539 CNS,> 100 µM
same,TGI,SK-MEL-2 melanoma,> 100 µM
same,TGI,SK-MEL-28 melanoma,> 100 µM
same,TGI,SK-OV-3 ovarian,> 100 µM
same,TGI,SN12C renal,> 100 µM
same,TGI,SNB-19 CNS,> 100 µM
same,TGI,SNB-75 CNS,> 100 µM
same,TGI,SR leukemia,> 100 µM
same,TGI,SW-620 colon,> 100 µM
same,TGI,TK-10 renal,> 100 µM
same,TGI,U251 CNS,> 100 µM
same,TGI,UACC-257 melanoma,> 100 µM
same,TGI,UACC-62 melanoma,> 100 µM
same,TGI,UO-31 renal,> 100 µM
same,TGI,XF 498 CNS,> 100 µM
O=C1NC(=S)NC(=O)C1=Cc1ccc2ccccc2n1,TGI,786-0 renal,> 100 µM
same,TGI,A498 renal,> 100 µM
same,TGI,A549 NSCLC,> 100 µM
same,TGI,ACHN renal,> 100 µM
same,TGI,CAKI-1 renal,> 100 µM
same,TGI,CCRF-CEM leukemia,> 100 µM
same,TGI,COLO 205 colon,> 100 µM
same,TGI,DLD-1 colon,> 100 µM
same,TGI,DMS 114 small cell lung,> 100 µM
same,TGI,DMS 273 small cell lung,> 100 µM
same,TGI,EKVX NSCLC,> 100 µM
same,TGI,HCC-2998 colon,> 100 µM
same,TGI,HCT-116 colon,> 100 µM
same,TGI,HCT-15 colon,> 100 µM
same,TGI,HL-60(TB) leukemia,> 100 µM
same,TGI,HOP-18 NSCLC,> 100 µM
same,TGI,HOP-62 NSCLC,> 100 µM
same,TGI,HOP-92 NSCLC,> 100 µM
same,TGI,HT29 colon,> 100 µM
same,TGI,IGROV1 ovarian,> 100 µM
same,TGI,K-562 leukemia,> 100 µM
same,TGI,KM12 colon,> 100 µM
same,TGI,KM20L2 colon,> 100 µM
same,TGI,LOX IMVI melanoma,> 100 µM
same,TGI,LXFL 529 NSCLC,> 100 µM
same,TGI,M14 melanoma,> 100 µM
same,TGI,M19-MEL melanoma,> 100 µM
same,TGI,MALME-3M melanoma,> 100 µM
same,TGI,MOLT-4 leukemia,> 100 µM
same,TGI,NCI-H226 lung,> 100 µM
same,TGI,NCI-H23 lung,> 100 µM
same,TGI,NCI-H460 lung,> 100 µM
same,TGI,NCI-H522 lung,> 100 µM
same,TGI,OVCAR-3 ovarian,> 100 µM
same,TGI,OVCAR-4 ovarian,> 100 µM
same,TGI,OVCAR-5 ovarian,> 100 µM
same,TGI,OVCAR-8 ovarian,> 100 µM
same,TGI,RPMI-8226 leukemia,> 100 µM
same,TGI,RXF 393 renal,> 100 µM
same,TGI,SF-268 CNS,> 100 µM
same,TGI,SF-295 CNS,> 100 µM
same,TGI,SF-539 CNS,> 100 µM
same,TGI,SK-MEL-2 melanoma,> 100 µM
same,TGI,SK-MEL-28 melanoma,> 100 µM
same,TGI,SK-MEL-5 melanoma,> 100 µM
same,TGI,SK-OV-3 ovarian,> 100 µM
same,TGI,SN12C renal,> 100 µM
same,TGI,SNB-19 CNS,> 100 µM
same,TGI,SNB-75 CNS,> 100 µM
same,TGI,SNB-78 CNS,> 100 µM
same,TGI,SR leukemia,> 100 µM
same,TGI,SW-620 colon,> 100 µM
same,TGI,TK-10 renal,> 100 µM
same,TGI,U251 CNS,> 100 µM
same,TGI,UACC-257 melanoma,> 100 µM
same,TGI,UACC-62 melanoma,> 100 µM
same,TGI,UO-31 renal,> 100 µM
